Data on two molecules can be found in publication PMC8147781, “Discovery of Pyrrolidine-2,3-diones as Novel Inhibitors of P. aeruginosa PBP3” (Antibiotics, 2021).

Converted amounts (≈) assume the structure as drawn.

One experiment has as its system A. baumannii ATCC15308. Kind of experiment: MIC broth microdilution, A. baumannii. As to conditions: Acinetobacter baumannii, control compounds. Format: cell-based. On the procedure: (§1) MIC determination was performed via standard broth microdilution according to the Clinical & Laboratory Standards institute guidelines. Overnight colonies grown on BD-Columbia agar with 5% Sheep Blood (Becton Dickinson, Franklin Lakes, NJ, USA), were diluted in Mueller Hinton Broth 2 cation adjusted (MH+) medium (Thermo Fisher Scientific) to a concentration of 5 × 10^5 CFU/mL. Serial dilutions (1:2) of test compounds were incubated at 37 °C with 5 × 10^4 bacteria in a final volume of 100 μL. Sterile and growth controls in the presence of 1% DMSO and PMBN if the case, and the positive controls, aztreonam (AZT) and tigecycline (TIG) were included in the experiments (Table S4). The MICs were determined visually after 18 h at 37 °C and confirmed by the addition of 10% PrestoBlue (ThermoFisher Scientific) reagent according to the manufacture’s protocol. The fluorescence signal of PrestoBlue reagent was measured at Ex/Em: 550/595 nm after 30 min incubation at 37 °C using at a ClarioStar microplate reader (BMG Labtech). PrestoBlue reduction occurs in the presence of living cells and consequently turns red in colour and is highly fluorescent.

Another experiment relates to B. subtilis 168. In words: MIC broth microdilution, B. subtilis. The following applies: Bacillus subtilis, 168, 18 h; PMBN 0 µg/mL, control compounds. The class given is cell-based. On the procedure:
as §1

Another experiment deals with S. pneumoniae. In words: MIC broth microdilution, S. pneumoniae. As to conditions: Streptococcus pneumoniae, 18 h; PMBN 0 µg/mL, control compounds; read-out: MIC (µM) S. pneumoniae. The class given is cell-based. On the procedure:
as §1

For experiment [1], the system named is P. aeruginosa PAO1 (wild-type strain). Kind of experiment: MIC broth microdilution, P. aeruginosa PAO1. The class given is cell-based, Pseudomonas aeruginosa. As to conditions: for MIC: Pseudomonas aeruginosa, PAO1, PMBN 0 µg/mL (absence of PMBN); for MIC (µM) against P. aeruginosa PAO1: wild-type strain, with 4 µg/mL PMBN.
From the text: (§2) The results presented above implied that seven pyrrolidine-2,3-dione derivatives inhibited the activity of ^PaPBP3 in vitro. Consequently, we were very interested in investigating the potential of these compounds to affect the growth of P. aeruginosa. Two P. aeruginosa bacterial strains (the wild-type PAO1 and the isogenic ΔmexB ΔmexX ΔmexCD-oprJ efflux pump mutant) were used to determine the MIC and the potential role of the main P. aeruginosa efflux systems in compound uptake. To increase the antibacterial sensitivity of the tested P. aeruginosa isolates to the potential inhibitors, we performed MIC experiments in the presence and absence of a sub-MIC concentration (4 µg/mL) of the outer membrane permeabilising polymyxin B nonapeptide (PMBN). […] Thus, we concluded that the physicochemical properties of the pyrrolidine-2,3-dione compounds were perhaps not yet favourable enough to cross the P. aeruginosa cell envelope without a permeabiliser because of their high hydrophobicity.
(§3) The wild-type P.aeruginosa PAO1 and the isogenic P. aeruginosa K2896 ΔmexBΔmexXYΔmexCD-oprJ isolates were used to determine the MIC in the presence and absence of PMBN [48].
as §1

The test system of experiment [2] is P. aeruginosa K2896 ΔmexBΔmexXYΔmexCD-oprJ. Kind of experiment: MIC broth microdilution, P. aeruginosa K2896 efflux mutant. As to conditions: for MIC: Pseudomonas aeruginosa, read-out: MIC (µM) P. aeruginosa K2896; for MIC (µM) against P. aeruginosa K28926: ΔmexB, ΔmexX, ΔmexCD-oprJ, with 4 µg/mL PMBN. Format: cell-based, Pseudomonas aeruginosa.
From the text: as §2, §3, §1

In experiment [3] the test system is K. pneumoniae clinical isolate. In words: MIC broth microdilution, K. pneumoniae. Format: cell-based. The following applies: control compounds. On the procedure:
as §1

For the next experiment, the system named is S. aureus 133. Kind of experiment: MIC broth microdilution, S. aureus. The class given is cell-based. As to conditions: Staphylococcus aureus, 133, 18 h; PMBN 0 µg/mL, control compounds. On the procedure: as §1
In a further experiment the test system is E. coli Neumann. Kind of experiment: MIC broth microdilution, E. coli. The class given is cell-based. As to conditions: Escherichia coli; PMBN 0 µg/mL, control compounds; read-out: MIC (µM) E. coli Newmann. On the procedure: as §1

As for `C[C@H]1[C@H](NC(=O)/C(=N\OC(C)(C)C(=O)O)c2csc(N)n2)C(=O)N1S(=O)(=O)O` [Aztreonam, aztreonam, reference compound], the MIC against A. baumannii ATCC15308 (ATCC15308, PMBN 0 µg/mL) is over 1.2 µM; in the experiment with A. baumannii ATCC15308 (ATCC15308, PMBN 50 µg/mL), 0.58 µM (≈ 0.253 µg/mL); in the experiment on B. subtilis 168, over 1.2 µM; in the experiment with S. pneumoniae it was over 1.2 µM; in experiment [1] it was over 1.2 µM; in experiment [2], 0.575 µM (≈ 0.25 µg/mL). Further, the MIC in experiment [3] (PMBN 0 µg/mL) is 0.143 µM (≈ 0.0623 µg/mL); in experiment [3] (PMBN 50 µg/mL) it was 0.071 µM (≈ 0.0309 µg/mL); against S. aureus 133 it was over 1.2 µM; with E. coli Neumann it was 0.287 µM (≈ 0.125 µg/mL). In addition, the “MIC (µM) against P. aeruginosa PAO1” value in experiment [1] is 0.58 µM (≈ 0.253 µg/mL). In experiment [2], the “MIC (µM) against P. aeruginosa K28926” value turned out to be 0.29 µM (≈ 0.126 µg/mL).
On to `CN(C)c1cc(NC(=O)CNC(C)(C)C)c(O)c2c1C[C@H]1C[C@H]3[C@H](N(C)C)C(O)=C(C(N)=O)C(=O)[C@@]3(O)C(O)=C1C2=O` [Tygecyclin, tigecycline, reference compound], for which the MIC is 0.9 µM (≈ 0.527 µg/mL) against A. baumannii ATCC15308 (ATCC15308, PMBN 0 µg/mL); 0.4 µM (≈ 0.234 µg/mL) in the experiment on A. baumannii ATCC15308 (ATCC15308, PMBN 50 µg/mL); 0.2 µM (≈ 0.117 µg/mL) against B. subtilis 168; 0.1 µM (≈ 0.0586 µg/mL) in the experiment on S. pneumoniae; over 4 µM in experiment [1]; 0.8 µM (≈ 0.469 µg/mL) in experiment [2]. Also, the MIC is 0.9 µM (≈ 0.527 µg/mL) in experiment [3] (PMBN 0 µg/mL), 0.4 µM (≈ 0.234 µg/mL) in experiment [3] (PMBN 50 µg/mL), 0.2 µM (≈ 0.117 µg/mL) in the experiment on S. aureus 133 and 0.4 µM (≈ 0.234 µg/mL) in the experiment with E. coli Neumann. Further, the “MIC (µM) against P. aeruginosa PAO1” value in experiment [1] worked out at 0.4 µM (≈ 0.234 µg/mL). The “MIC (µM) against P. aeruginosa K28926” value in experiment [2] amounted to 0.2 µM (≈ 0.117 µg/mL).
